Reference: patent US11980669B2, “Capped and uncapped antibody cysteines, and their use in antibody-drug conjugation” (PFIZER INC., priority 2015, dated 2024)

System: stable CHO cells
Assay: Cell viability and cell counts of stable CHO cells cultured with capping reagent in the medium
Assay type: cell-based
Details: 0.5 mM DTNB in CD-CHO medium, 72 hrs
Procedure: Ellman's reagent, 5,5′-dithiobis-(2-nitrobeoic acid) (DTNB) was examined as a capping agent to add thionitrobenzoate (TNB). (DTNB is commonly used for assaying free thiol content in proteins. This reagent cannot disrupt disulfide bond but can react with free Cys. It has been used to treat partially-reduced antibody materials to generate four free Cys for drug conjugation.) A CHO cell line stably expressing the cysteine mutant antibody was grown to 4×10e6/ml in CD-CHO medium, then switched to fresh CD-CHO medium, fresh CD-CHO medium with 0.5 mM DTNB, or the triple-low medium as a control. Cells were cultured in these conditions for 72 hrs, cell viability was measured and conditioned medium was harvested. […] Protein expression in the DTNB-containing medium was also 5-fold lower than those in CD-CHO. Antibody purification from ProA column and protein migration in SDS-PAGE from all three culture conditions materials were nearly identical, as shown in FIG. 5A. All three samples in SEC analysis show monomer species, with very little aggregation.
19.8 mM MTFB, dissolved in DMSO, was added to 50 ml cell culture at a final concentration of 0.25 mM for 24 hr. Cell viability was measured and conditioned medium was harvested. […] Antibody HAB08L443C at such condition was subsequently purified by a 1 ml-ProA column (FIG. 12B). […]

Work on O=C(O)c1cc(SSc2ccc([N+](=O)[O-])c(C(=O)O)c2)ccc1[N+](=O)[O-] [DTNB, 5,5′-dithiobis-(2-nitrobeoic acid)] yielded a Cell viability of 40%.
